Where two headings read alike, the source gives them in different places. Numbered stars: 1 amine (or outer) side, 2 acyl side, 3 side chain; on linkers, the order of the positions; unused ones are H or OH. Square brackets hold non-standard residues; d marks the D form. Peptide text beside a SMILES is read from it. * marks the point of attachment. dPip(4-aza,4-Cbz) = O=C(O)[C@H]1CN(C(=O)OCc2ccccc2)CCN1; X2 = O=C(OCc1ccccc1)N1CCN([*:1])[C@H](C(=O)[*:2])C1; dPiz(1,6-dehydro) = O=C(O)[C@H]1CCC=NN1; d2Nal = N[C@H](Cc1ccc2ccccc2c1)C(=O)O; dNMeF = CN[C@H](Cc1ccccc1)C(=O)O; Chg = N[C@H](C(=O)O)C1CCCCC1; Pip = O=C(O)[C@@H]1CCCCN1; dPip = O=C(O)[C@H]1CCCCN1; dNMeA = CN[C@H](C)C(=O)O; Cbz = O=C(OCc1ccccc1)*; Boc = CC(C)(C)OC(=O)*; OtBu = CC(C)(C)O*
Key:
[1] = target: T1, AVP-V2 sites (Rattus norvegicus, UniProt Q00788); test: [^3 H]AVP binding to crude membrane preparation of male rat kidney medulla (AVP-V2 sites); conditions: for IC50: read-out: Receptor Binding Results IC50 (nM) [^3 H]-AVP-V2
T1 construct: male rat liver (AVP-V1 sites) or kidney medulla (AVP-V2 sites); from tissue; host or cells: male rat kidney medulla, crude membranes
T1 sequence (Q00788 whole entry): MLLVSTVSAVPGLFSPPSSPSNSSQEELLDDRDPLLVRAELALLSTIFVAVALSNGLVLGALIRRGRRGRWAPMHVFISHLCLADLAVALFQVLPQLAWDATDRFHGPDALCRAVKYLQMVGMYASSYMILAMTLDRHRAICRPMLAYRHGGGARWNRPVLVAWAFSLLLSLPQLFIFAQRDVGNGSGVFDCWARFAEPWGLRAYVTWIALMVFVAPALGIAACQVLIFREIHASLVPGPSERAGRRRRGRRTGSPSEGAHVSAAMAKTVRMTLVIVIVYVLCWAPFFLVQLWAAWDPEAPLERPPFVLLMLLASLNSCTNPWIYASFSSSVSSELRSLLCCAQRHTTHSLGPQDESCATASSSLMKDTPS
Procedure: (§1) Nonspecific binding (5-10% of the total binding) was determined using 10 μM unlabeled AVP, and the binding reaction was terminated by filtration as described above for the [^3 H]OT binding assay.

[2] = target: T2, uterine OT receptors (Rattus norvegicus, UniProt P70536); test: [^3 H]OT binding to uterine OT receptors, crude membrane preparation of uteri from DES-treated rats; conditions: for inhibition at 0.1 µM: @ 100 (nM)
T2 construct: from tissue; host or cells: uterus of DES-treated rats, crude membranes
T2 sequence (P70536 1-388): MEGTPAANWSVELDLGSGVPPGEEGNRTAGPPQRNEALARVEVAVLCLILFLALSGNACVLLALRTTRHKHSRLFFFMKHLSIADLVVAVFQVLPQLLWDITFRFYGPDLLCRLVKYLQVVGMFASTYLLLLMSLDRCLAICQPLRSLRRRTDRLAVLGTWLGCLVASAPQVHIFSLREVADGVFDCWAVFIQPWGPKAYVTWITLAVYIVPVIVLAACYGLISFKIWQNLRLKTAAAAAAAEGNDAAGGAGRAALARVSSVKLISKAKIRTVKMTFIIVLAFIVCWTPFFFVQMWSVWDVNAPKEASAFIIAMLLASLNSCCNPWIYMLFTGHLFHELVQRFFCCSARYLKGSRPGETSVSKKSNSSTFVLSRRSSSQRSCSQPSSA
Procedure: Competition studies were conducted at equilibrium (60 minutes; 22° C.) using 1 nM [^3 H]OT in the following assay buffer: 50 mM Tris-HCl, 5 mM MgCl2, and 0.1% BSA, pH 7.4.

[3] = target: T3, AVP-V1 sites (Rattus norvegicus, UniProt P30560); test: [^3 H]AVP binding to crude membrane preparation of male rat liver (AVP-V1 sites)
T3 construct: crude membrane preparation of male rat liver (AVP-V1 sites); from tissue; host or cells: male rat liver, crude membranes
T3 sequence (P30560 whole entry): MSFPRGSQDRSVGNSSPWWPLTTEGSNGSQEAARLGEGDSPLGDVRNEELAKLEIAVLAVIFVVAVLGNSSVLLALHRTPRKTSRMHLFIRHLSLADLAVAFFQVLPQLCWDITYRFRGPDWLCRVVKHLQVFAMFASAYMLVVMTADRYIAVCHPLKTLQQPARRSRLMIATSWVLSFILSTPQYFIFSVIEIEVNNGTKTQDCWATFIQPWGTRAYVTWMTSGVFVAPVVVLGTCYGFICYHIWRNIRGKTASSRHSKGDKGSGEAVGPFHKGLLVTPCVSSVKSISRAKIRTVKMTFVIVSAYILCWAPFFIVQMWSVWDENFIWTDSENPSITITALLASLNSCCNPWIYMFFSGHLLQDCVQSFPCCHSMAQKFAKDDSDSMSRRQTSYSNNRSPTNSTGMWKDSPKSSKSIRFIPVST
Procedure: as §1

[4] = rat kidney medulla membranes, 2 nM [^3 H]AVP
[5] = rat uterus membranes, 1 nM [^3 H]OT, read-out: Receptor Binding Results IC50 (nM) [^3 H]OT
[6] = Receptor Binding Results IC50 (nM) [^3 H]-AVP-V1
[7] = 1 h, read-out: [^3 H]OT: percent inhibition of radioligand at the given concentration

Compound | IC50 [1, 4] [nM] | IC50 [2, 5] [nM] | IC50 [3, 6] [nM] | other results
CC[C@H](C)[C@@H]1NC(=O)[C@@H](C)NC(=O)[C@@H]2CCCN2C(=O)[C@@H](Cc2ccccc2)NC(=O)[C@@H]2CCCCN2C(=O)[C@H]2CCCCN2C1=O [Example 2, Cylco[D-alanyl-L-isoleucyl-D-pipecolyl-L-pipecolyl-D-phenylalanyl-L-prolyl]] (cyclo(I[dPip][Pip][dF]P[dA])) | > 10000 | > 10000 | > 10000 | 
CC[C@H](C)[C@@H]1NC(=O)[C@@H](Cc2ccccc2)NC(=O)[C@@H]2CCCN2C(=O)[C@@H](Cc2ccccc2)N(C)C(=O)[C@H](CCCCN)NC(=O)[C@H]2CCC=NN2C1=O [Example 174, c-[D-Phenylalanyl-L-isoleucyl-D-Δ-piperazyl-L-Lysyl-N-Me-D-phenylalanyl-L-prolyl]] (cyclo(I[dPiz(1,6-dehydro)]K[dNMeF]P[dF])) |  | 21 |  | IC50 [1]: 570 nM; IC50 ([3]; read-out: Receptor Binding Results IC50 (nM) [^3 H]-AVP-V1): 610 nM
CC[C@H](C)[C@@H]1NC(=O)[C@@H](Cc2ccccc2)NC(=O)[C@@H]2CCCN2C(=O)[C@@H](C)N(C)C(=O)[C@@H]2CCCCN2C(=O)[C@H]2CCCCN2C1=O [Example 5, Cyclo[D-phenyalanyl-L-isoleucyl-D-pipecolyl-L-pipecolyl-D-(N^α methyl)alanyl-L-prolyl]] (cyclo(I[dPip][Pip][dNMeA]P[dF])) | > 10000 |  | > 10000 | IC50 ([2]; Receptor Binding Results IC50 (nM) [^3 H]OT): 930 nM
c-[D-2-Trytophanyl-L-isoleucinyl-D-pipecolyl-L-piperazin-2-yl-(4-Cbz)-D-histidinyl(BOM)-L-prolyl] [Example 175] |  |  |  | [^3 H]-AVP-V2: percent inhibition of radioligand at the given concentration ([1]; @ 10,000 (nM)): 81%; [^3 H]OT: percent inhibition of radioligand at the given concentration ([2]; @ 1,000 (nM)): 79%; [^3 H]-AVP-V1: percent inhibition of radioligand at the given concentration ([3]; @ 10,000 (nM)): 54%
CC[C@H](C)[C@@H]1NC(=O)[C@@H](Cc2c[nH]c3ccccc23)NC(=O)[C@@H]2CCCN2C(=O)[C@@H](CC(=O)OC(C)(C)C)NC(=O)[C@@H]2CCCCN2C(=O)[C@H]2CCCCN2C1=O [Example 172, c-[D-Tryptophanyl-L-isoleucinyl-D-pipecolyl-L-pipecolyl-D-(β-t-butyl)aspartyl-L-prolyl]] (cyclo(I[dPip][Pip][dD](OtBu)P[dW])) | > 10000 |  | > 10000 | inhibition at 0.1 µM [2, 7]: 20%
CC[C@H](C)[C@@H]1NC(=O)[C@@H](Cc2c[nH]c3ccccc23)NC(=O)[C@@H]2CCCN2C(=O)[C@@H](Cc2c[nH]cn2)NC(=O)[C@H](CCCCNC(=O)OCc2ccccc2)NC(=O)[C@H]2CCCCN2C1=O [Example 38, Cyclo[D-tryptophanyl-L-isoleucyl-D-pipecolyl-L-(carbobenzyloxy)lysyl-D-histidyl-L-prolyl]] (cyclo(I[dPip]K(Cbz)[dH]P[dW])) | 10000 |  | > 1000 | inhibition at 0.1 µM [2, 7]: 60%
C[C@@H]1NC(=O)[C@@H](Cc2ccccc2)NC(=O)[C@@H]2CCCN2C(=O)[C@@H](Cc2ccccc2)N(C)C(=O)[C@@H]2CCCCN2C(=O)[C@H]2CCCCN2C1=O [Example 9, Cyclo[D-phenylalanyl-L-alanyl-D-pipecolyl-L-pipecolyl-D-(N^α methyl)phenylalanyl-L-prolyl]] (cyclo(A[dPip][Pip][dNMeF]P[dF])) | > 10000 | > 10000 | > 10000 | 
CC[C@H](C)[C@@H]1NC(=O)[C@@H](Cc2ccc3ccccc3c2)NC(=O)[C@@H]2CCCN2C(=O)[C@@H](Cc2ccccc2)N(C)C(=O)[C@H](CCCCNC(=O)OC(C)(C)C)NC(=O)[C@H]2CCCCN2C1=O [Example 138, c-[D-2-Naphthylalanyl-L-isoleucyl-D-pipecolyl-L-(N-t-butyloxycarbonyl)lysyl-D-(N-methyl)phenylalanyl-L-prolyl]] (cyclo(I[dPip]K(Boc)[dNMeF]P[d2Nal])) |  |  | 10000 | inhibition at 1 µM ([1]; 0.5 h, @ 1,000 (nM), read-out: [^3 H]-AVP-V2: percent inhibition of radioligand at the given concentration): 42%; inhibition at 0.1 µM [2, 7]: 50%
CC[C@H](C)[C@@H]1NC(=O)[C@@H](Cc2ccccc2)NC(=O)[C@@H]2CCCN2C(=O)[C@@H](Cc2ccccc2)NC(=O)[C@@H]2CN(C(=O)OCc3ccccc3)CCN2C(=O)[C@H]2CN(C(=O)OCc3ccccc3)CCN2C1=O [Example 79, c-[D-Phenylalanyl-L-isoleucinyl-D-piperazin-2-yl (4-Cbz)-L-piperazin-2-yl (4-Cbz)-D-phenylalanyl-L-prolyl]] (cyclo(I[dPip(4-aza,4-Cbz)][X2][dF]P[dF])) | 10000 | 1700 | > 10000 | 
CC[C@H](C)[C@@H]1NC(=O)[C@@H](Cc2ccccc2)NC(=O)[C@@H]2CCCN2C(=O)C(Cc2cccnc2)NC(=O)[C@@H]2CCCCN2C(=O)[C@H]2CCCCN2C1=O (single isomer, unassigned) [Example 10 (isomer 2), Cyclo[D-Phe-L-Ile-D-Pip-L-Pip-D,L-3-PyrAla-L-Pro]] | 10000 | 1000 | > 10000 | 
CC[C@H](C)[C@@H]1NC(=O)[C@@H](Cc2ccccc2)NC(=O)[C@@H]2CCCN2C(=O)[C@@H](Cc2ccccc2)N(C)C(=O)[C@H]2CN(C(=O)OCc3ccccc3)CCN2C(=O)[C@H]2CN(C(=O)OCc3ccccc3)CCN2C1=O [Example 85, c-[Phenylalanyl-L-isoleucinyl-D-piperazin-2-yl(4-Cbz)-D-piperazin-2-yl(4-Cbz)-D-(N^α -methyl)phenylalanyl-L-prolyl]] (cyclo([dF]I[dPip(4-aza,4-Cbz)][dPip(4-aza,4-Cbz)][dNMeF]P)) | 10000 | 1000 | > 10000 | 
CC[C@H](C)[C@@H]1NC(=O)[C@@H](Cc2ccc(O)cc2)NC(=O)[C@@H]2CCCN2C(=O)[C@@H](Cc2ccccc2)N(C)C(=O)[C@H](CCCCNC(=O)OC(C)(C)C)NC(=O)[C@H]2CCCCN2C1=O [Example 148, C-[D-Tyrosyl-L-isoleucyl-D-pipecolyl-L-(N-t-butyloxycarbonyl)lysyl-D-(N-methyl)phenylalanyl)-L-prolyl] (cyclo(I[dPip]K(Boc)[dNMeF]P[dY])) | > 10000 |  | > 10000 | inhibition at 1 µM ([2]; 1 h, @ 1,000 (nM), read-out: [^3 H]OT: percent inhibition of radioligand at the given concentration): 50%
CC[C@H](C)[C@@H]1NC(=O)[C@@H](Cc2ccccc2)NC(=O)[C@@H]2CCCN2C(=O)[C@@H](Cc2ccccc2)N(C)C(=O)[C@H](CC(=O)OC(C)(C)C)NC(=O)[C@H]2CCCCN2C1=O [Example 115, c-[D-Phenylalanyl-L-isoleucyl-D-pipecolyl(O-tert-butyl)-L-aspartyl-N-methyl-D-phenylalanyl-L-prolyl]] (cyclo(D(OtBu)[dNMeF]P[dF]I[dPip])) | 10000 | 460 | > 10000 | 
O=C1N[C@@H](C2CCCCC2)C(=O)N2CCC[C@@H]2C(=O)N2CCC[C@H]2C(=O)N[C@H](Cc2ccccc2)C(=O)N2CCC[C@H]2C(=O)N[C@@H]1Cc1ccccc1 [Example 67, c-[D-Phenylalanyl-L-cyclohexylglycyl-D-prolyl-L-prolyl-D-phenylalanyl-L-prolyl]] (cyclo([dF]P[dF][Chg][dP]P)) | > 10000 | 10000 | > 10000 | 
CC[C@H](C)[C@@H]1NC(=O)[C@@H](Cc2ccc3ccccc3c2)NC(=O)[C@@H]2CCCN2C(=O)[C@@H](Cc2ccccc2)N(C)C(=O)[C@H](CCCCN)NC(=O)[C@H]2CCCCN2C1=O [Example 141, C-[D-2-Napthylalanyl-L-isoleucyl-D-pipecolyl-L-lysyl-D-(N-methyl)phenylalanyl-L-prolyl]] (cyclo([d2Nal]I[dPip]K[dNMeF]P)) |  | 45 |  | [^3 H]-AVP-V2: percent inhibition of radioligand at the given concentration ([1]; @ 1,000 (nM)): 78%; [^3 H]-AVP-V1: percent inhibition of radioligand at the given concentration [3]: 48%

Reference: patent US5225528A, “Cyclic hexapeptide oxytocin antagonists” (priority 1990, dated 1993)
